{"source": "patent US12171842B2", "about": "“Method for hyperthermially treating a cancer” (Imam Abdulrahman Bin Faisal University, priority 2021, dated 2024)", "key": {"[1]": {"system": "Human mammary adenocarcinoma (MCF7) cells", "experiment": "Cell viability (MTT) and EC50, MCF7", "assay_type": "cell-based", "settings": "for effect on cell viability (in words): MCF7, 48 h, four doses (nanocomposites 0.025-0.5 mg/ml)", "experimental": "(§1) Human mammary adenocarcinoma (MCF7) and the non-cancerous human foreskin fibroblasts (HFF) cell lines were used to assess the cytotoxic effect of the prepared compounds. Cells were cultured in a DMEM culture medium containing 10% HI—FBS, 1% Penicillin Streptomycin, and 1% MEM NEAA. Cells were maintained in a humidified setting at 37° C. with 5% CO2. For cell viability assay, cells were seeded in a 96-well plate with a density of 20,000 cells/well. While for microscopic images, 50,000 cells/well were plated on an eight-well chamber slide. On the following day, cells were switched to the starve culture medium that contains 0.5% HI—FBS. Cells were maintained for 24 h in the starve medium before the treatment was added.\n(§2) MCF7 and HFF cells were treated with the subsequent conditions for 48 h: CuFe2O4/Mesosilicalite, Curcumin, Cisplatin, CuFe2O4/Mesosilicalite/Curcumin, CuFe2O4/Mesosilicalite/Curcumin/Cisplatin, or CuFe2O4/MCM-41/Curcumin/Cisplatin. Treatment concentrations of CuFe2O4/Mesosilicalite, CuFe2O4/Mesosilicalite/Curcumin, CuFe2O4/Mesosilicalite/Curcumin/Cisplatin, and CuFe2O4/MCM-41/Curcumin/Cisplatin nanocomposites were: 0.025, 0.05, 0.1, and 0.5 mg/ml. Based on the drug loading experiments, simple calculations were followed to reflect the actual quantity of curcumin and cisplatin that adsorbed on CuFe2O4/Mesosilicalite nanoparticles. According to the loading experiments, 1 mg of CuFe2O4 nanoparticles contains 0.25 mg and 0.045 mg of curcumin and cisplatin, respectively. Thus, if CuFe2O4/Mesosilicalite concentration was 0.5 mg/ml, there is 0.125 mg/ml of adsorbed curcumin and 0.0225 mg/ml of functionalized cisplatin. Therefore, the treatment concentrations of curcumin were: 0.00625, 0.0125, 0.025 and 0.125 mg/ml and the treatment concentrations of cisplatin were: 0.001125, 0.00225, 0.0045 and 0.0225 mg/ml.\n(§3) To assess the compounds' cytotoxicity, 3-(4,5-dimethylthiazol-2-yl)-2,5-diphenyltetrazolium bromide (MTT), a cell viability assay, was used. It measures the cell viability by assessing the mitochondria's ability to convert yellow MTT solution into purple formazan insoluble crystals. […] The difference in color intensity was measured by SYNERGY-neo2 BioTek ELISA reader at 570 nm as a measuring wavelength. The technical triplicate readings of each condition were averaged, and the absorbance from MTT negative control was deducted from these readings. An initial reading was measured before MTT addition at the same wavelength. Thus, to remove undesirable interference in the measurement, the initial reading was subtracted from the final reading. Then, the treatment groups were analyzed by comparing them to the control (untreated cells). Cell viability was calculated using the following equation (1): […]"}, "[2]": {"system": "non-cancerous human foreskin fibroblasts (HFF)", "experiment": "Cell viability (MTT) and EC50, HFF", "assay_type": "cell-based", "settings": "for effect on cell viability (in words): HFF, 48 h, four doses (nanocomposites 0.025-0.5 mg/ml)", "experimental": "as §1, §2, §3"}, "[3]": {"experiment": "Cell viability (MTT) and EC50, HFF", "assay_type": "cell-based, human", "settings": "human, HFF cells (non-cancerous human foreskin fibroblasts); HFF, third dose (0.1 mg/ml nanocomposite; 0.025 mg/ml curcumin), 48 h, versus untreated control", "experimental": "as §1, §2, §3"}}, "data": [{"compound": "N.N.[Cl][Pt][Cl]", "note": "[Cisplatin, cisplatin]", "values": [{"measurement": "effect on cell viability (in words)", "setting": "[1]", "result": "reduction in cell viability"}, {"measurement": "EC50 Value", "setting": "[1]; MCF-7 cell line, 48 h MTT, best-fit line", "result": 4.425, "unit": "µg/mL"}, {"measurement": "EC50 Value", "setting": "[2]; HFF cell line, 48 h MTT, best-fit line", "result": 3.763, "unit": "µg/mL"}, {"measurement": "effect on cell viability (in words)", "setting": "[2]", "result": "reduction in cell viability"}]}, {"compound": "COc1cc(/C=C/C(=O)CC(=O)/C=C/c2ccc(O)c(OC)c2)ccc1O", "note": "[Curcumin]", "values": [{"measurement": "viability at 25 µg/mL", "setting": "[1]; Homo sapiens, MCF7, third dose (0.1 mg/ml nanocomposite; 0.025 mg/ml curcumin), 48 h, versus untreated control", "result": 80.7, "unit": "%"}, {"measurement": "effect on cell viability (in words)", "setting": "[1]", "result": "reduced cell viability only at the highest concentration"}, {"measurement": "viability at 48 h, 0.025 mg/ml", "setting": "[3]", "result": 84.1, "unit": "%"}, {"measurement": "effect on cell viability (in words)", "setting": "[2]", "result": "minimally reduced the cell viability"}]}]}
